Several values for one entry are separate records, joined by “and”; a condition that tells them apart may be missing. Equal values may be shown once.
Test system: IGROV1 complex spheroids (HUVEC, MSC), viability % test/control
Experiment: Anticancer human tumor IGROV1 cell line growth inhibition [GQUAD];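 note: spheroids exposed to compounds for 7 days before readout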
Details: for viability, T/C: stronger effect = lower value
Text: DNA G-quadruplex Stabilizer Agents in Combinations in Complex Spheroids
A high-throughput screen of multi-cell type tumor spheroids was designed to identify active combinations of DNA G-quadruplex stabilizer agents and targeted small molecules. Complex spheroids include a stromal component modeled by human endothelial cells (HUVEC) and fibroblasts modeled by human mesenchymal stem cells (MSCs). The concentration ranges selected for each drug and investigational agent were based upon clinically achievable concentrations if the clinical Cmax of the agent was known.
Compounds. The drugs and investigational agents: pidnarulex (CX-5461; NSC782164), APTO-253 (NSC789042), BRACO-19 (NSC847499), peposertib (NSC802822), ceralasertib (NSC780249), elimusertib (NSC800525), camonsertib (NSC841442), AZD-1390 (NSC803789), olaparib (NSC753686), talazoparib (NSC767125), ART-558 (NSC835418), sotorasib (NSC818433), MRTX-1133 (NSC836407), SN-38 (NSC673596), topotecan (NSC609699), etoposide (NSC141540), doxorubicin (NSC123127), gemcitabine (NSC613327), 5-fluorouracil (NSC19893), paclitaxel (NSC125973), vemurafenib (NSC761431), panobinostat (NSC761190), R-306465 (JNJ-16241199; NSC773264), adavosertib (NSC754352), TP-3654 (NSC805149), carboplatin (NSC241240), KSQ-4279 (NSC840948), and staurosporine (NSC755774) were obtained from the National Cancer Institute (NCI) Developmental Therapeutics Program Chemical Repository (34). The FDA-approved anticancer drug set is available from the NCI Developmental Therapeutics Program. […] The stock solutions were prepared in dimethyl sulfoxide (DMSO, Sigma-Aldrich, St. Louis, MO, cat. D2650) at 800-fold the tested concentration and stored at -70 degrees C prior to their use. All drugs and investigational agents were tested over a range starting from a high concentration at or near the clinical Cmax and decreasing in half-log increments. If the clinical Cmax for an agent had not been determined, the highest concentration tested was 10 microM.
2.3 Cell Culture. All cells were maintained in an incubator at 37 degrees C and 5% CO2 with 95% humidity. The PDC lines were cultured according to standard operating procedures established by the NCI PDMR. All PDCs were thawed and cultured in Matrigel-coated flasks prepared with a working solution of 1X Ham's F-12 nutrient mix, without supplementation (Invitrogen, cat. 11765054), 100 U/mL penicillin-streptomycin (Invitrogen, cat. 15140122), and 2.5% Matrigel (Corning Inc., cat. 354248) for the first three passages. The 857933-349-R-J2-PDC line was cultured in 6C/Colon 1B media, which includes advanced DMEM/F-12 (Thermo Fisher Scientific, cat. 12634028), 10 mM HEPES (Thermo Fisher Scientific, cat. 15630080), 1X GlutaMAX supplement (Thermo Fisher Scientific, cat. 35050061), 0.1 mg/mL primocin (InvivoGen, cat. ant-pm-2), 10% defined fetal bovine serum, heat inactivated (HyClone Laboratories Inc., cat. SH30070.03HI), 50% L-WRN conditioned media (ATCC, cat. CRL-3276), 1.25 mM N-Acetyl-L-cysteine (Sigma-Aldrich, cat. A9165), 10 mM nicotinamide (Sigma-Aldrich, cat. N0636), 1X B-27 supplement (Thermo Fisher Scientific, cat. 17504044), 1X N-2 supplement (Thermo Fisher Scientific, cat. 17502048), 10 microM Y-27632 dihydrochloride (Tocris Bioscience, cat. 1254), and 50 ng/mL human EGF recombinant protein (Thermo Fisher Scientific, cat. PHG0311). The 485176-168-R4-J1-PDC line was cultured in Panc media, which includes all 6C/Colon 1B media components plus 100 ng/mL human FGF-10 (Thermo Fisher Scientific, cat. 100-26), 500 nM SB-431542 (Selleckchem, cat. S1067), and gastrin (Tocris, cat. 3006).
[…]

[1] = compound alone, run of 03/18/2024

| Structure (SMILES) | viability, T/C (compound 0.0316 µM) | viability, T/C (compound 0.1 µM) | viability, T/C (compound 0.316 µM) | viability, T/C (compound 1 µM) | viability, T/C (compound 3.16 µM) | viability, T/C (compound 10 µM) | IC50 (curve of compound) | IC50 [1] | IC50 (compound alone, run of 03/26/2024) | viability, T/C (compound 0.000999 µM) | viability, T/C (compound 0.00316 µM) | viability, T/C (compound 0.00999 µM) | viability, T/C (compound 0.0999 µM) |
| --- | --- | --- | --- | --- | --- | --- | --- | --- | --- | --- | --- | --- | --- |
| COc1cc(C2c3cc4c(cc3C(OC3OC5COC(C)OC5C(O)C3O)C3COC(=O)C23)OCO4)cc(OC)c1O (stereo not given) | 87.7% and 74.7% and 87.1% | 50.5% and 54.1% and 56.5% | 23.5% and 21.2% and 26.5% | 14% and 12.6% and 12.7% | 10.9% and 11.7% and 9.02% | 5.01% and 6.17% and 5.68% | 0.0998 µM and 0.115 µM and 0.128 µM | – | – | – | – | – | – |
| COc1ccc([C@@H](O)c2cc(-c3ncnc4cc(N5CCOCC5)ccc34)c(F)cc2Cl)nn1 | 98.6% and 95.7% and 99.4% | 88.4% and 81.6% and 65.6% | 91.1% and 92.8% and 94.7% | 50.6% and 64.3% and 60.5% | 20.1% and 18% and 17.6% | 6.24% and 5.2% and 5.02% | 1.1 µM and 1.44 µM and 1.36 µM | – | – | – | – | – | – |
| COc1cccc2c1C(=O)c1c(O)c3c(c(O)c1C2=O)CC(O)(C(=O)CO)CC3OC1CC(N)C(O)C(C)O1 (stereo not given) | 67.5% and 64.3% and 55.3% | 16.6% and 19.5% and 22.7% | 8.67% and 8.83% and 8.72% | 3.86% and 4.47% and 4.45% | 0.12% and 0.15% and 0.11% | 0.59% and 1.33% and 0.9% | 0.0472 µM and 0.0458 µM and 0.0379 µM | – | – | – | – | – | – |
| COc1ncnc(C2CC2)c1-c1ncc2cnn(Cc3ccc(-c4nc(C(F)(F)F)cn4C(C)C)cc3)c2n1 | 99.3% and 85% and 100% | 82.7% and 93.3% and 87% | 94.9% and 98.1% and 93% | 90.1% and 91.9% and 96.5% | 78.2% and 69.5% and 96.9% | 94.5% and 82.1% and 77.6% | > 10 µM | – | – | – | – | – | – |
| Cc1[nH]c2ccc(F)cc2c1-c1nc2c3cccnc3c3ncccc3c2[nH]1 | – | 101% [middle of 12 runs] | – | 4.97% [middle of 12 runs] | 4.72% [middle of 12 runs] | 4.29% [middle of 12 runs] | – | 561 nM [middle of 8 runs] | 531 nM [middle of 4 runs] | – | – | – | – |
| Cc1[nH]c2ccccc2c1CCNCc1ccc(/C=C/C(=O)NO)cc1 | 34.2% and 33.4% and 38.3% | – | 0.26% (2×) and 0.27% | – | – | – | 0.0217 µM and 0.0205 µM and 0.0232 µM | – | – | 108% and 102% and 86.4% | 89.8% and 85.8% and 90.5% | 83.8% and 79.4% and 81.5% | 4.41% and 3.52% and 3.65% |
| Cc1cccc(N(C)C(=O)C2C(O)CCN2c2nc(C)cc(C(F)(F)F)c2C#N)c1 (stereo not given) | 85.7% and 108% and 109% | 86.3% and 92.3% and 87.3% | 100% (2×) and 103% | 87.2% and 85.6% and 91% | 89.7% and 99.7% and 89% | 88.3% and 93.8% and 78% | > 10 µM | – | – | – | – | – | – |
| Cc1cnc(CNC(=O)c2c(=O)c3ccc(N4CCCN(C)CC4)nc3n3c2sc2ccccc23)cn1 | 71.2% [middle of 12 runs] | 40.9% [middle of 12 runs] | 27% [middle of 12 runs] | 16.7% [middle of 12 runs] | 11.6% [middle of 12 runs] | 11.3% [middle of 12 runs] | – | 68.4 nM [middle of 11 runs] | – | – | – | – | – |
| Cn1ncnc1[C@H]1c2n[nH]c(=O)c3cc(F)cc(c23)N[C@@H]1c1ccc(F)cc1 | 70% and 67.1% and 66.2% | – | 36.7% and 29.4% and 34.7% | – | – | – | 0.128 µM and 0.11 µM and 0.0778 µM | – | – | 97.2% and 105% and 82.2% | 92.2% and 77% and 90.2% | 76.3% and 86.3% and 86.2% | 53.7% and 55% and 46.8% |
| Nc1ccn(C2OC(CO)C(O)C2(F)F)c(=O)n1 (stereo not given) | 12.1% and 11.8% and 8.43% | 5.96% and 5.24% and 5.38% | 5.74% and 5.8% and 4.72% | 6.33% and 6.36% and 4.79% | 6.11% and 5.6% and 4.26% | 5.62% and 5.26% and 4.2% | < 0.0316 µM | – | – | – | – | – | – |
| O=C(NO)c1cnc(N2CCN(S(=O)(=O)c3ccc4ccccc4c3)CC2)nc1 | 65% and 73.3% and 81.7% | 24% and 32.4% and 40.8% | 4.46% and 3.52% and 3.88% | 0.24% and 0.3% and 0.34% | 0.04% (2×) and 0.15% | 0.06% and 0.13% and 0.05% | 0.0481 µM and 0.061 µM and 0.0772 µM | – | – | – | – | – | – |
| O=C(c1cc(Cc2n[nH]c(=O)c3ccccc23)ccc1F)N1CCN(C(=O)C2CC2)CC1 | 87.6% and 92% and 100% | 91.8% and 91.9% and 84.2% | 93.4% and 85.7% and 102% | 77.6% and 81.8% and 83.7% | 63.9% and 52.6% and 40% | 26.5% and 25.6% and 20.9% | 4.76 µM and 3.58 µM and 2.43 µM | – | – | – | – | – | – |
| O=c1[nH]cc(F)c(=O)[nH]1 | 109% and 96.5% and 111% | 86.7% and 99.3% and 94.8% | 99.8% and 104% and 106% | 95.4% and 96.4% and 96.5% | 69.2% and 93.7% and 84.7% | 30.4% and 23.8% and 19.9% | 5.6 µM and 6.49 µM and 5.82 µM | – | – | – | – | – | – |

Source: PubChem BioAssay AID2060486 (Molecular Pharmacology Branch, DTP, NCI, 2025)
